Measured values published in publication PMC7708426, “Identification of potential TNF-α inhibitors: from in silico to in vitro studies” (Scientific Reports, 2020).

System: TNF-α
Experiment: TNF-α inhibition in LPS-activated THP-1 cells (Human TNF-α ELISA of supernatants)
Format: cell-based
Details: PMA-differentiated THP-1 cells activated with 50 ng/mL LPS, 4 h, mean ± SEM of triplicate
Description: THP-1 cells (Human monocytic leukemia cells) were obtained from Biobank facility, ICCBS, University of Karachi, which was purchased from the ECACC (European Collection of Cell Cultures, UK). The cells were cultured in RPMI-1640, supplemented with 10% FBS (fetal bovine serum), 50 µmol/L mercaptoethanol (Merck, Damstadt, Germany), 5.5 mmol/L glucose (BioM Laboratories, Chemical Division, Malaysia), 2 mmol/L; L-glutamine (PAA Laboratories, GmbH, Pasching, Austria), 10 mmol/L HEPES (MP Biomedicals, lLLKIRCH, France) and 1 mmol/L sodium pyruvate (GIBCO, Grand Island, NY, USA). Cells were harvested and 2 × 10^5 cells/mL were then added to 24-well tissue culture plates. Differentiation of cells was performed by adding 20 ng/mL of phorbol myristate acetate (PMA) (SERVA, Heidelberg, Germany), and by incubation at 37 °C for 24 h in 5% CO2. […] The supernatants were analyzed for the level of TNF-α using Human TNF-α ELISA Kit (R&D Systems, Minneapolis, USA).
Briefly the working concentration of 4 μg/mL in PBS from 720 μg/mL of mouse anti-human TNF-α capture antibodies were used for coating of 96 well ELISA plate. […] The reaction was stopped by adding 50 μL of stop solution (2 N H2SO4) and plate was then read at wavelength of 450 nm in ELISA reader (ELX800 NB, DIA LAB, Wr. Neudrof, Austria).

CC(=O)CCCCn1c(=O)c2c(ncn2C)n(C)c1=O [Pentoxifylline] was tested, and the IC50 was 341 ± 7.54 µM.
